Molecules are shown by their SMILES.

The target in experiment [1] is SYK (Homo sapiens, UniProt P43405). Briefly: biochemical. The following applies: read-out: % enzyme activity, 1 μM; Run 1, Run 2.
Experiment [2] addresses T1, SGK3/SGKL (Homo sapiens, UniProt Q96BR1).
T1 sequence (Q96BR1 1-496): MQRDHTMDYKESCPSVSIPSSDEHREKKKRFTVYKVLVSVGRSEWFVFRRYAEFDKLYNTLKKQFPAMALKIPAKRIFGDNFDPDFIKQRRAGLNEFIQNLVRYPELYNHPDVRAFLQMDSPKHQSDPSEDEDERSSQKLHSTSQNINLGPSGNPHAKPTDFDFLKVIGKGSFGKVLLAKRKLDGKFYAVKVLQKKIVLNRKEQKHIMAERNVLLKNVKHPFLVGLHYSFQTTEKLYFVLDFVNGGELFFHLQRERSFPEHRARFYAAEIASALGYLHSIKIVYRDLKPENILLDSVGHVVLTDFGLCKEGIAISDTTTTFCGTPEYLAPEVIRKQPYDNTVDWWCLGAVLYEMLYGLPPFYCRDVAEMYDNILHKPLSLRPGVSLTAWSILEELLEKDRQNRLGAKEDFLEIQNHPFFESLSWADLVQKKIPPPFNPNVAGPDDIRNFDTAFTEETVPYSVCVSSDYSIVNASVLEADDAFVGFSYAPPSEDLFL
Briefly: biochemical. The following applies: read-out: % enzyme activity, 1 μM; Run 1, Run 2.

Experiment [3] deals with DAPK1 (Homo sapiens, UniProt P53355). Kind of experiment: biochemical. The following applies: read-out: % enzyme activity, 1 μM; Run 1, Run 2.
Sequence of DAPK1 (P53355 whole entry): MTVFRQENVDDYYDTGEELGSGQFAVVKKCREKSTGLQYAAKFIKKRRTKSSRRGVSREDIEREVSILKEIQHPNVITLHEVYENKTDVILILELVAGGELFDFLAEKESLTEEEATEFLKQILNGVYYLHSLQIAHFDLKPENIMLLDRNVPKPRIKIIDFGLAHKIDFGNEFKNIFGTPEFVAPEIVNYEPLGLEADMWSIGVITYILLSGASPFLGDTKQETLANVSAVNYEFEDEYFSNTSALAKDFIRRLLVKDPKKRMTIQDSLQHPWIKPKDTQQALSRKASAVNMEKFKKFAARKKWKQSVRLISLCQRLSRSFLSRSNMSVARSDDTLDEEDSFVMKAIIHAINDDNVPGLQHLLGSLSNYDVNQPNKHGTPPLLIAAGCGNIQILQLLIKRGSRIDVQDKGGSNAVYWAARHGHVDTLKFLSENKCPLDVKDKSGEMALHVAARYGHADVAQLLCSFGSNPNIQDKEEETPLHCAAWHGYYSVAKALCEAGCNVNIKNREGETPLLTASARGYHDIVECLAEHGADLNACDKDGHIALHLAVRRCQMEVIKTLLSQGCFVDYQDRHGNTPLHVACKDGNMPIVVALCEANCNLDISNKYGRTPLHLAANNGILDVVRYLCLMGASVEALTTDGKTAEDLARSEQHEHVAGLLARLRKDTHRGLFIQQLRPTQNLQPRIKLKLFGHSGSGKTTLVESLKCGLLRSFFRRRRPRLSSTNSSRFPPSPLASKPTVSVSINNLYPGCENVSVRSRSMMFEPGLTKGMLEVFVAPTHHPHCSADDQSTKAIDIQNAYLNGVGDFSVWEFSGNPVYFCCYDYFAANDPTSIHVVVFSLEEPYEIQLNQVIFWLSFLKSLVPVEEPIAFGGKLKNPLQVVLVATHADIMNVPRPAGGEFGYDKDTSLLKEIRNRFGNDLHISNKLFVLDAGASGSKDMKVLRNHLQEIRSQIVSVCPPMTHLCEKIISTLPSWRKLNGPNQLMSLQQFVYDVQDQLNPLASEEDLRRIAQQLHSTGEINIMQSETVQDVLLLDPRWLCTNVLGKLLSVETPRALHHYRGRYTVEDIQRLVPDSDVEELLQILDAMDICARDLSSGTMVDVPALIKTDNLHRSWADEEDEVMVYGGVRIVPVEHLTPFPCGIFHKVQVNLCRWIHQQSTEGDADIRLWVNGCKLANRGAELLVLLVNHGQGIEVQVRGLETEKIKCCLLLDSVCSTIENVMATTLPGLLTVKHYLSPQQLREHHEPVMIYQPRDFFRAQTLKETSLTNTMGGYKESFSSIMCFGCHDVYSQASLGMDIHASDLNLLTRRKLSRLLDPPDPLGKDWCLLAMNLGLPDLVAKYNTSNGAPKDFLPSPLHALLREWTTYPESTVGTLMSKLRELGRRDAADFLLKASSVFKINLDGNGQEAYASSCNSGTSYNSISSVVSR
The target of experiment [4] is T2, TSSK3/STK22C (Homo sapiens, UniProt Q96PN8).
T2 sequence (Q96PN8 1-268): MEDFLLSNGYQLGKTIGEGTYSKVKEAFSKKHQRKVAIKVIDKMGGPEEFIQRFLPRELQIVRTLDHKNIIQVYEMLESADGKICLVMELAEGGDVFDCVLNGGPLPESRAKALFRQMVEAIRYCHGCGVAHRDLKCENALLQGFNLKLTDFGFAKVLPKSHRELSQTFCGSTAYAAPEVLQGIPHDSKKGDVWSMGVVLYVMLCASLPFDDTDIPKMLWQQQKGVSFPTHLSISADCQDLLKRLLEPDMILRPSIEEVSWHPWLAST
As to conditions: 1 μM; Run 1, Run 2.

The target of experiment [5] is T3, TEC (Homo sapiens, UniProt P42680).
T3 sequence (P42680 1-631): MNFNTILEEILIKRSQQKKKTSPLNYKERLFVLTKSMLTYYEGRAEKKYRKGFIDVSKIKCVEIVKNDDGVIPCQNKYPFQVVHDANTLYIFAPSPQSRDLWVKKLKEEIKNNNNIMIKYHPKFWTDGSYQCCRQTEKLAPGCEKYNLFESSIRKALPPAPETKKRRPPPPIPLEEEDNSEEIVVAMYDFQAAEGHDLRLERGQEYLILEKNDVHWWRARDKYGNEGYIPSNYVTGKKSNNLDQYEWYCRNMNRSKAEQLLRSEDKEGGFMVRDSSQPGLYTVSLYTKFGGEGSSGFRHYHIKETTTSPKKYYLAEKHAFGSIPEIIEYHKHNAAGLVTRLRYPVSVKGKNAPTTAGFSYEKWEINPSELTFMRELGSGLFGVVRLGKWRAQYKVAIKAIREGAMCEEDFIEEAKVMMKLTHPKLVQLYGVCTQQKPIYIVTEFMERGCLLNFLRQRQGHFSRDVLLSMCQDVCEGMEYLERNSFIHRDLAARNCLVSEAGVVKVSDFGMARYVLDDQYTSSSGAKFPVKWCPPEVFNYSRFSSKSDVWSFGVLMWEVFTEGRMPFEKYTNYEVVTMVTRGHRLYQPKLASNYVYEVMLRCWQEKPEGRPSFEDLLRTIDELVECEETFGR
Kind of experiment: biochemical. The following applies: read-out: % enzyme activity, 1 μM; Run 1, Run 2.

Experiment [6] addresses ERBB4/HER4 (Homo sapiens, UniProt Q15303). The following applies: 1 μM; Run 1, Run 2.
Experiment [7] concerns the target RET (Homo sapiens, UniProt P07949). As to conditions: 1 μM; Run 1, Run 2.
In experiment [8] the target is T4, PRKX (Homo sapiens, UniProt P51817).
T4 sequence (P51817 1-358): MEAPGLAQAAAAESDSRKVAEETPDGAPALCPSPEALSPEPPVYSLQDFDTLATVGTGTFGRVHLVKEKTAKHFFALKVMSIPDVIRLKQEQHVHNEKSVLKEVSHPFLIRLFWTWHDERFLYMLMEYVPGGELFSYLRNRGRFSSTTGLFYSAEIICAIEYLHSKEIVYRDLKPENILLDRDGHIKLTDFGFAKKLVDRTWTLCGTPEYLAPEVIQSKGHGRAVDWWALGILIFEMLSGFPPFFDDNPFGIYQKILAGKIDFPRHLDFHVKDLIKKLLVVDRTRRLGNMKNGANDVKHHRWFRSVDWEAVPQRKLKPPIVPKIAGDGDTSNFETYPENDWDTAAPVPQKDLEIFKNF
The following applies: 1 μM; Run 1, Run 2.

The target of experiment [9] is VRK2 (Homo sapiens, UniProt Q86Y07). Briefly: biochemical. The following applies: read-out: % enzyme activity, 1 μM; Run 1, Run 2.
Sequence of VRK2 (Q86Y07 whole entry, species assumed): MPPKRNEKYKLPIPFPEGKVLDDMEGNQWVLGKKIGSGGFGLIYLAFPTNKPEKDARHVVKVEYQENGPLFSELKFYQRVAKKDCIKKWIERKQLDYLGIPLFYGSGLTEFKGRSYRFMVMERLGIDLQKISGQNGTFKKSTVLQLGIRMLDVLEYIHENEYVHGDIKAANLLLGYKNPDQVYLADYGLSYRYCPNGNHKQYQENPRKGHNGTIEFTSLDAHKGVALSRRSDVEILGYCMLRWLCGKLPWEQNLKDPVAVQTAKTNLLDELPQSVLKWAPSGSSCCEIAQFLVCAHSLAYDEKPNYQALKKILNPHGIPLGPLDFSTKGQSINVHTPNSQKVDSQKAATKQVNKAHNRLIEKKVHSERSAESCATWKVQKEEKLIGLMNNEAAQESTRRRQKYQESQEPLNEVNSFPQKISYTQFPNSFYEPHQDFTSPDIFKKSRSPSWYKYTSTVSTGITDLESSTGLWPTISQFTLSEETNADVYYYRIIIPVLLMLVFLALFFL
The target of experiment [10] is STK16 (Homo sapiens, UniProt O75716). Briefly: biochemical. As to conditions: read-out: % enzyme activity, 1 μM; Run 1, Run 2.
Sequence of STK16 (O75716 whole entry): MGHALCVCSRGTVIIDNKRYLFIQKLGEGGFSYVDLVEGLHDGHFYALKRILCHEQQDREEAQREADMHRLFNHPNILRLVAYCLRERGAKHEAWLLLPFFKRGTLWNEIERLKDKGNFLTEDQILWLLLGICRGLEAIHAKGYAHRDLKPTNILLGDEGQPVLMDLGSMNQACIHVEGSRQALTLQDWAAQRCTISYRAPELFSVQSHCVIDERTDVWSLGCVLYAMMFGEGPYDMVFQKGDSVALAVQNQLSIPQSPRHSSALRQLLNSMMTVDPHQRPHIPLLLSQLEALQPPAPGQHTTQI
Experiment [11] has as its target T5, GRK1 (Homo sapiens, UniProt Q15835).
T5 sequence (Q15835 1-563): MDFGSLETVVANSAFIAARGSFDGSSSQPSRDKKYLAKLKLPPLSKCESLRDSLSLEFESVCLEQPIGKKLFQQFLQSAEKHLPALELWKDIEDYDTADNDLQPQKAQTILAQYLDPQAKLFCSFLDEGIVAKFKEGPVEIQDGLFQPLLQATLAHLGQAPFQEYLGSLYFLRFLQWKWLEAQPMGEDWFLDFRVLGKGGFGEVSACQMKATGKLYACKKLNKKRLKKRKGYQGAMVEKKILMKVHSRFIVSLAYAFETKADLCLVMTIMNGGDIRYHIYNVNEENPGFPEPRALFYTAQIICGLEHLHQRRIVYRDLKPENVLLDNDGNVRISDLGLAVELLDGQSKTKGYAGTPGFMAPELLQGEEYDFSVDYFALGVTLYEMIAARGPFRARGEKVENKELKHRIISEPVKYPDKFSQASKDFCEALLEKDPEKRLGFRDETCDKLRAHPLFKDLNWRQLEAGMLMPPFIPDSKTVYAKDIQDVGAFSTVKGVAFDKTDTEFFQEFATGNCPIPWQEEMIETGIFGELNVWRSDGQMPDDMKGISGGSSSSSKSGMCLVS
Briefly: biochemical. As to conditions: read-out: % enzyme activity, 1 μM; Run 1, Run 2.

The target in experiment [12] is PDGFRb (Homo sapiens, UniProt P09619). Briefly: biochemical. The following applies: read-out: % enzyme activity, 1 μM; Run 1, Run 2.
Sequence of PDGFRb (P09619 33-1106): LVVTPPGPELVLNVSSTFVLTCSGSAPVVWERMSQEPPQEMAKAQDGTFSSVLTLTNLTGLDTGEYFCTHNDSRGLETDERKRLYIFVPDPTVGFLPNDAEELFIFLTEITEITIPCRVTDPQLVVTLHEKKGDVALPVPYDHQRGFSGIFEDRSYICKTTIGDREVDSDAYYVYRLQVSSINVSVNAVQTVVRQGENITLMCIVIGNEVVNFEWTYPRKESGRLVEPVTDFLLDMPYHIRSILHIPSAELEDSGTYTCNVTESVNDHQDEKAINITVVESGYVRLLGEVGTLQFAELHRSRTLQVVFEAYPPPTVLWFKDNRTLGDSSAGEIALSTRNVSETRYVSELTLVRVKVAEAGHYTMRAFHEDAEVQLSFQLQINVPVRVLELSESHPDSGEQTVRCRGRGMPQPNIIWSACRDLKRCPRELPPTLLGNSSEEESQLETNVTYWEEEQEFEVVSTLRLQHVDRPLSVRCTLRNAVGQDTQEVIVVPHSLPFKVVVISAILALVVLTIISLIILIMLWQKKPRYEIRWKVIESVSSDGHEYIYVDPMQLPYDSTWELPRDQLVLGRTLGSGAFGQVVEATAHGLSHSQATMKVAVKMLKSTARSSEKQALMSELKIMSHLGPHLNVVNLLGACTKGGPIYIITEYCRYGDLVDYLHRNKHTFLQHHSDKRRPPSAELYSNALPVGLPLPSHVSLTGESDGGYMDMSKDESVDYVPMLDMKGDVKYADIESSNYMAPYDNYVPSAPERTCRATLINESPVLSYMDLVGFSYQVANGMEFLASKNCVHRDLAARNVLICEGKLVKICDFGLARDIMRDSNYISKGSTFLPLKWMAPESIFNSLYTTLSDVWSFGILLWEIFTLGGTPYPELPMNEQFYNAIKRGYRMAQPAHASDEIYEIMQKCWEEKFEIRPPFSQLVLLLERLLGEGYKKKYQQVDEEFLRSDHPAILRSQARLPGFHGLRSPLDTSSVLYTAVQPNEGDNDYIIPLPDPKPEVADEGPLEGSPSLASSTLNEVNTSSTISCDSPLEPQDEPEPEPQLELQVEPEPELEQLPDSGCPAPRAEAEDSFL
The target in experiment [13] is MELK (Homo sapiens, UniProt Q14680). Briefly: biochemical. As to conditions: read-out: % enzyme activity, 1 μM; Run 1, Run 2.

Sequence of ERBB4/HER4 (Q15303 26-1308): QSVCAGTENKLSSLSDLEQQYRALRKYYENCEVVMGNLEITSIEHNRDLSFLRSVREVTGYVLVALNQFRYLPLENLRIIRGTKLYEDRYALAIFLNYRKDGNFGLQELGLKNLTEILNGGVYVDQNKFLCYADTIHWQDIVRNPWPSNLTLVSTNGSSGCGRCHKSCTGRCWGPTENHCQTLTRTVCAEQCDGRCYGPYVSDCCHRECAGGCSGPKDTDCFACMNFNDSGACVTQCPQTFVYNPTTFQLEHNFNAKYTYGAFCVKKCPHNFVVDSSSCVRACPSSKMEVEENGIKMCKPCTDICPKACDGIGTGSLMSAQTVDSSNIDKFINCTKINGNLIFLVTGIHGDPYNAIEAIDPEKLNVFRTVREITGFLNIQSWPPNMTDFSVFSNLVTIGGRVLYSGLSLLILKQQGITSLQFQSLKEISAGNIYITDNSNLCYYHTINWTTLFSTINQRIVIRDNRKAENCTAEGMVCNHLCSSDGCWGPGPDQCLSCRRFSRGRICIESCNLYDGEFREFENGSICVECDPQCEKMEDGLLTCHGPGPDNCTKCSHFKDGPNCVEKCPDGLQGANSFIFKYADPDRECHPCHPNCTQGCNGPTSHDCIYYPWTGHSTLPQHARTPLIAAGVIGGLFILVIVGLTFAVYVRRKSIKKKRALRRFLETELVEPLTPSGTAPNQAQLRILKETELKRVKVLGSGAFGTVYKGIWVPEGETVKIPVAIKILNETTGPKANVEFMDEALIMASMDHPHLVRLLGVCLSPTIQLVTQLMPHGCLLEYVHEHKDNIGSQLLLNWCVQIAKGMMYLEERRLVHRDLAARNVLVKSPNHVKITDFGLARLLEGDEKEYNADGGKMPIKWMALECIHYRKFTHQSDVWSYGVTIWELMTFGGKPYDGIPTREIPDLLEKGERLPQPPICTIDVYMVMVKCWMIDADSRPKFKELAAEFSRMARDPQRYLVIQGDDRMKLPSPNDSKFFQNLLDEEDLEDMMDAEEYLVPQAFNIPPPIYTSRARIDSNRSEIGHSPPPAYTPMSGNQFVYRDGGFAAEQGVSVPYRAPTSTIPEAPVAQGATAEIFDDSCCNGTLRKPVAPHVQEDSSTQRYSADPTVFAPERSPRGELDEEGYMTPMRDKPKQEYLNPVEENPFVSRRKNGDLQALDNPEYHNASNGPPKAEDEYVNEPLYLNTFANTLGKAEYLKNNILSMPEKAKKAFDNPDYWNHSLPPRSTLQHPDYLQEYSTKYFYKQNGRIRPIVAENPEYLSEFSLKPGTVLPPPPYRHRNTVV

`COc1cc(-c2cncc(-c3ccc(N4CCN(C)CC4)cc3)c2C)cc(F)c1C(N)=O` [Compound 26a, 2-Fluoro-6-methoxy-4-(4-methyl-5-(4-(4-methylpiperazin-1-yl)phenyl)pyridin-3-yl)benzamide]: the remaining activity at 1 µM came to 101% in experiment [1]; 103% in experiment [2]; 95.7% in experiment [3]; 108% in experiment [5]; 89.1% in experiment [9]; 107% in experiment [10]. Besides, the remaining activity at 1 µM in [11] was 94%; in experiment [12] it was 77.3%; in [13] it was 99.2%. In addition, the “% enzyme activity” value in [4] was found to be 96.02%; in experiment [6] it was 99.40%; in experiment [7] it was 94.34%; in experiment [8], 99.24%.
Consider `COc1cc(-c2cncc(-c3ccc(N4C[C@@H](C)N(C)[C@@H](C)C4)cc3)c2C)cc(F)c1C(N)=O` [Compound 26c, 2-Fluoro-6-methoxy-4-(4-methyl-5-(4-((3R,5S)-3,4,5-trimethylpiperazin-1-yl)phenyl)pyridin-3-yl)benzamide], for which the remaining activity at 1 µM in [1] amounted to 102%; in [2], 94.8%; in experiment [3], 98.8%; in experiment [5], 106%; in [9], 92.5%; in experiment [10], 101%. Also, the results for the remaining activity at 1 µM in experiment [11], in experiment [12] and in [13] were 95.3%, 92.1% and 99.4%, respectively. In addition, the “% enzyme activity” value in [4] is listed as 95.64%; in experiment [6] it was 93.88%; in experiment [7], 93.64%; in experiment [8], 90.55%.

Values taken from PMC8213057, “Targeting ALK2: An Open Science Approach to Developing Therapeutics for the Treatment of Diffuse Intrinsic Pontine Glioma” (Journal of Medicinal Chemistry, 2020).
